Patent US11710542B2, “Methods of protein docking and rational drug design” (priority 2016, dated 2023)
Values after ≈ are worked out from the molar mass of the structure shown.

What was measured:
E. coli K-12 strain = assay: MIC (MIC90) by broth microdilution, E. coli K-12 strain expressing TEM β-lactamase variants; format: cell-based; settings: for MIC: E. coli K-12 strain, no plasmid (no TEM β-lactamase), MIC90
Description: (§1) Plasmids were then transformed into BL21(DE3) cells (Intact Genomics) and DH5a cells (Life Technologies) to create strains in which β-lactamases are expressed using a native promoter.
(§2) Antibiotic resistance of the strains was determined by measuring their minimum inhibitory concentrations (MIC90's) using the broth microdilution method according to the Clinical and Laboratory Standards Institute (CLSI, formerly the NCCLS) guidelines (CLSI document M07-A9, 2012). Each well of a 96-well microtiter plate was filled with 75 μL of sterile Mueller Hinton II (MHII) media broth (Sigma). Each antibiotic was dissolved in water making a 20 mM solution, then diluted with sterile MHII media broth to […] (BP) or 288 μM (CFX). Exactly 75 μL of the compound solution was added to the first well of the microtiter plate and 2-fold serial dilutions were made down each row of the plate. Exactly 75 μL of bacterial inoculum (5×10^5 CFU/mL) was then added to each well giving a total volume of 150 μL/well and compound concentration gradients of […] (BP) and 72 μM-0.04 μM (CXF). The plate was incubated at 37° C. for 17 h, and then each well was examined for bacterial growth. The MIC90 was recorded as the lowest compound concentration required to inhibit 90% of bacterial growth as judged by turbidity of the culture media relative to a row of wells filled with a water standard. Gentamicin was included in a control row at a concentration gradient of 174 μM-0.09 μM.

E. coli B strain = assay: MIC (MIC90) by broth microdilution, E. coli B strain expressing TEM β-lactamase variants; format: cell-based; settings: for MIC: E. coli B strain, no plasmid (no TEM β-lactamase), MIC90
Description: as §1, §2

`CO/N=C(\C(=O)N[C@@H]1C(=O)N2C(C(=O)O)=C(COC(C)=O)CS[C@H]12)c1csc(N)n1` [CFX, cefotaxime] was tested, and the MIC (E. coli K-12 strain) was under 0.035 µM and the MIC (E. coli B strain) was under 0.035 µM.

For Gentamicin, the MIC (E. coli K-12 strain) was 0.34 µM and the MIC (E. coli B strain) was 0.68 µM.

In the case of `CC1(C)S[C@@H]2[C@H](NC(=O)Cc3ccccc3)C(=O)N2[C@H]1C(=O)O` [BP, benzylpenicillin], the MIC (E. coli K-12 strain; Escherichia coli, K12STRAIN) is reported as 50 µM (≈ 16.7 µg/mL) and the MIC (E. coli B strain; Escherichia coli) is reported as under 23 µM.

B1: TEM-1: wild-type TEM β-lactamase reference (protein, UniProt P62593 24-286, looked up)
Beta-lactamase TEM: HPETLVKVKDAEDQLGARVGYIELDLNSGKILESFRPEERFPMMSTFKVLLCGAVLSRVDAGQEQLGRRIHYSQNDLVEYSPVTEKHLTDGMTVRELCSAAITMSDNTAANLLLTTIGGPKELTAFLHNMGDHVTRLDRWEPELNEAIPNDERDTTMPAAMATTLRKLLTGELLTLASRQQLIDWMEADKVAGPLLRSALPAGWFIADKSGAGERGSRGIIAALGPDGKPSRIVVIYTTGSQATMDERNRQIAEIGASLIKHW
B1 was tested, and the “BP MIC” value (E. coli K-12 strain; benzylpenicillin (BP), E. coli K-12 strain expressing the TEM variant, MIC90, 37° C., 17 h) was 24000 µM, the “CFX MIC” value (E. coli K-12 strain; cefotaxime (CFX), E. coli K-12 strain expressing the TEM variant, MIC90, 37° C., 17 h) was under 0.035 µM and the “Gentamicin MIC” value (E. coli K-12 strain; gentamicin (control antibiotic), E. coli K-12 strain expressing the TEM variant, MIC90, 37° C., 17 h) was 0.17 µM. For the same molecule, the “BP MIC” value (E. coli B strain; benzylpenicillin (BP), E. coli B strain expressing the TEM variant, MIC90, 37° C., 17 h, most commonly observed value, error +/− one well) was 24000 µM, the “CFX MIC” value (E. coli B strain; cefotaxime (CFX), E. coli B strain expressing the TEM variant, MIC90, 37° C., 17 h) was under 0.035 µM and the “Gentamicin MIC” value (E. coli B strain; gentamicin (control antibiotic), E. coli B strain expressing the TEM variant, MIC90, 37° C., 17 h) was 0.68 µM.
